Test results published in US9911927B2, “Compounds having semiconducting properties and related compositions and devices” (Flexterra, Inc., priority 2011, dated 2018).

Columns and labels:
[1] = Solubility in toluene at 60° C.; type: physicochemical
Method: The solubility of Cn-DNTTs (Cn=a linear alkyl chain) are very low in organic solvents (up to ˜80 mg/L in toluene at 60° C.) (see: Adv. Mater. 2011, 23, 1222-1225).

CCCC(C)c1ccc2cc3c(cc2c1)sc1c2cc4ccc(C(C)CCC)cc4cc2sc31 (stereo not shown) [2,9-1MB-DNTT, 2,9-Bis(1-methylbutyl)dinaphtho [2,3-b:2′,3′-f]thieno[3,2-b]thiophene]
melting point: 280 to 281 °C

CCCCC(C)c1ccc2cc3c(cc2c1)sc1c2cc4ccc(C(C)CCCC)cc4cc2sc31 (stereo not shown) [2,9-1MP-DNTT, 2,9-Bis(1-methylpentyl)dinaphtho[2,3-b:2′,3′-f]thieno[3,2-b]thiophene]
solubility ([1]; in toluene at 60° C.): about 50 g/L | solubility relative to corresponding linear alkyl chain DNTT compounds ([1]; toluene at 60° C., times higher): > 500 times | melting point: 262 to 263 °C
